The results in this text go back to patent publication US20220274997A1, “PIM KINASE INHIBITOR COMPOSITIONS AND USES THEREOF” (Snap Bio, Inc., priority 2019, published 2022).

For orientation: EC50 means the concentration needed to bring the measured effect to its halfway point. Lower therefore signals higher potency in that assay. The IC50 is the concentration that inhibits the measured activity by half.

In one assay the test system is Huh7. The assay can be described thus: CellTiter-Glo cancer cell growth inhibition, Huh7. The assay is classed as cell-based. The source says: (§1) The CellTiter-Glo® Luminescent Cell Viability Assay is a sensitive homogeneous method to determine the number of viable cells in culture, Detection is based on using the luciferase reaction to measure the amount of ATP from viable cells. The amount of ATP in cells correlates with cell viability. Within minutes after a loss of membrane integrity, cells lose the ability to synthesize ATP, and endogenous ATPases destroy any remaining ATP; thus the levels of ATP fall precipitously. The CellTiter-Glo® Reagent does three things upon addition to cells. It lyses cell membranes to release ATP; it inhibits endogenous ATPases, and it provides luciferin, luciferase and other reagents necessary to measure ATP using a bioluminescent reaction. The unique properties of a proprietary stable luciferase.
(§2) All assays were performed by Reaction Biology Corporation (Malvern, Pa.) or ChemDiv, Inc. (San Diego, Calif.). All cell lines were purchased from American Type Culture Collection (ATCC, Manassas, Va.), except Huh 7 (RIKEN, Toyo, Japan) and HepaRG (Life Technologies, Carlsbad, Calif.).
(§3) Stock solutions ([…]) were diluted with cell culture media to produce 500× serial dilutions and […] of final compound dilutions were added to cells in assay plates to screen a series of 10 doses starting at […]. Final DMSO concentration was 0.2%. Assay plates are centrifuged at 100 rpm, 1 minute and kept at 37° C., 5% CO2, humidified atmosphere. […] Luminescence intensity was measured for each well using the Tecan M 1000 microplate reader after 5 min of incubation with CellTiter-Glo Reagent. The number of viable cells in culture was determined based on quantitation of the ATP present in each culture well. […] The EC50 curves were plotted and […] values were calculated using the GraphPad Prism 4 program based on a sigmoidal dose-response equation.

The subject of another assay is HepG2. The assay is described as follows: CellTiter-Glo cancer cell growth inhibition, HepG2. The assay is classed as cell-based, human.
Source text: as §1, §2, §3

In another assay the test system is A673. The assay is described as follows: CellTiter-Glo cancer cell growth inhibition, A673. In kind it is cell-based.
Source text: as §1, §2, §3

A further assay deals with T1, PIM2 (Homo sapiens, UniProt Q9P1W9).
T1 construct: purchased ProQinase, Freiburg, Germany 0223-0000-1
T1 sequence (Q9P1W9 whole entry): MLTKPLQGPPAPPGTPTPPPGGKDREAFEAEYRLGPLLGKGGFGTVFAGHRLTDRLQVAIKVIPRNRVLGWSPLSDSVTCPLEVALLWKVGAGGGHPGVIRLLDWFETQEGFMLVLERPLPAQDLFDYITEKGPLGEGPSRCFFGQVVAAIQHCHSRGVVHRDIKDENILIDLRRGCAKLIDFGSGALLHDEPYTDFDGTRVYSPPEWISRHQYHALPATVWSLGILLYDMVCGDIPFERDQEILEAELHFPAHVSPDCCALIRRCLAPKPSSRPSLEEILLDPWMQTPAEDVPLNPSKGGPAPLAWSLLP
The assay is described as follows: LANCE Ultra kinase assay, PIM2. In kind it is biochemical. From the text:
(§4) The second assay used was Perkin Elmer's LANCE® Ultra kinase assay which uses a ULight™-labeled peptide substrate and an appropriate Europium-labeled anti-phospho antibody. When the substrate becomes phosphorylated by a kinase of interest, the phosphorylated site on the substrate is recognized by the Europium-labeled anti-phospho antibody. […] The intensity of light emission is proportional to the level of ULight peptide phosphorylation. A kinase inhibitor reduces the FRET signal, thus providing an accurate and sensitive measure of inhibition potency.
(§5) The assay was performed in 384-well plates in two steps: PIM kinases were mixed with the ULight-substrate (CREBtide) in buffer and incubated for 10 min. Subsequently, ATP and molecules of the present disclosure were added in a kinase buffer at the appropriate concentration and the reactions were incubated for 1 hour, at room temperature in the dark. • After 1 h EDTA was added to stop the kinase reaction, Eu-W1024-labeled anti-phosphoserine-CREB (Ser133) Antibody (anti-phosphoCREBtide specific antibody) was added to the reaction in LANCE Detection buffer. The mixture was allowed to incubate for 30 min to allow binding of the antibody to the phosphorylated site before the plate was read using a Tecan microplate reader
(§6) Kinase Assay Buffer—50 mM HEPES pH7.0.1 mM EGTA, 10 mM MgCl2, 0.01% BRU-35.
(§7) The inhibitory activity of each compound against PIM kinases was measured with the LANCE® Ultra Kinase Assays by ChemDiv, Inc. (San Diego, Calif.).
(In general: In TR-FRET formats the signal depends on donor and acceptor labels being close together.)

The next assay concerns the target T2, PIM3 (Homo sapiens, UniProt Q86V86).
T2 construct: purchased SignalChem, Richmond, Canada P37-10BG
The assay is described as follows: LANCE Ultra kinase assay, PIM3. In kind it is biochemical. To be noted: for IC50: LANCE assay.
Source text: as §4, §5, §6, §7

Another assay deals with HepaRG. The assay can be described thus: CellTiter-Glo cancer cell growth inhibition, HepaRG. In kind it is cell-based. To be noted: Homo sapiens, 72 h.
Source text: as §1, §2, §3

The next assay addresses T3, PIM1 (Homo sapiens, UniProt P11309).
T3 construct: purchased ProQinase, Freiburg, Germany 0186-0000-1
The assay can be described thus: LANCE Ultra kinase assay, PIM1. The assay is classed as biochemical.
Source text: as §4, §5, §6, §7

The mark [1] stands for this setting: growth inhibition, 72 hours, CellTiter-Glo.

T3 sequence (P11309 whole entry): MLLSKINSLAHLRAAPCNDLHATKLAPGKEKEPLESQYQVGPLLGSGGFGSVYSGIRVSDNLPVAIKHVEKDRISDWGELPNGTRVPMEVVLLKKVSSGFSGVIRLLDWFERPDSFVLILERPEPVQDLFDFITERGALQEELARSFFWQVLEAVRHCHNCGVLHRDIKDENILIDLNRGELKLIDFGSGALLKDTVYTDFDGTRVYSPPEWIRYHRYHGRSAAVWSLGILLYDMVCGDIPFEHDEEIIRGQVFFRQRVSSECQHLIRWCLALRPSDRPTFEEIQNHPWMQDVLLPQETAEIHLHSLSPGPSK

Consider `N[C@@H]1CCCN(c2c(/C=C3\SC(=O)NC3=O)cccc2-c2ccccc2)C1` [AZD-1208, reference compound], for which the EC50 in the assay with Huh7 (setting [1]) was 13500 nM; with HepG2 (setting [1]) it was 28000 nM; in the assay with A673 (setting [1]), 19700 nM.

Take `O=C1NC(=O)c2c1c1c3ccc(O)cc3[nH]c1c1c2c2ccc(O)cc2n1CCN1CCCCC1` [Compound 56, 2,10-dihydroxy-12-(2-piperidinoethyl)-12,13-dihydro-5H-indolo[2,3-a]pyrrolo[3,4-c]carbazole-5,7(6H)-dione]: the values for the IC50 on PIM2 (ATP 0.1 mM), on PIM3 (ATP 0.1 mM) and against PIM1 (ATP 0.1 mM) were 50 nM, 1 nM and 0.7 nM, respectively. Also, the EC50 in the assay on Huh7 (Homo sapiens, Huh-7, 72 h) was 484 nM; with HepG2 (Homo sapiens, HepG2, 72 h) it was 315 nM; in the assay with HepaRG, 77 nM; in the assay on A673 (Homo sapiens, A673, 72 h), 35 nM.

As to `CNC(=O)c1cc(Oc2ccc(NC(=O)Nc3ccc(Cl)c(C(F)(F)F)c3)c(F)c2)ccn1` [Regorafenib, reference compound], the EC50 with Huh7 (Homo sapiens, Huh-7, 72 h) is 4400 nM; with HepG2 (Homo sapiens, HepG2, 72 h), 4300 nM; with HepaRG, 2300 nM; with A673 (Homo sapiens, A673, 72 h), 30000 nM.

As to `O=C1NC(=O)c2c1c1c3cc(F)ccc3[nH]c1c1c2c2cc(F)ccc2n1CCN1CCCCC1` [Compound 51, 3,9-difluoro-12-(2-piperidin-1-ylethyl)-12,13-dihydro-5H-indolo[2,3-a]pyrrolo[3,4-c]carbazole-5,7(6H)-dione], the IC50 at PIM2 (ATP 0.1 mM) was more than 1000 nM; on PIM3 (ATP 0.1 mM) it was 0.8 nM; against PIM1 (ATP 0.1 mM), 3 nM.

For `O=C1NC(=O)c2c1c1c3cc(F)c(O)cc3[nH]c1c1c2c2cc(F)c(O)cc2n1CCN1CCOCC1` [Compound 37, 3,9-difluoro-2,10-dihydroxy-12-(2-morpholinoethyl)-12,13-dihydro-5H-indolo[2,3-a]pyrrolo[3,4-c]carbazole-5,7(6H)-dione], the 50% inhibitory concentration (IC50) on PIM2 (ATP 0.1 mM) was determined as 13 nM; against PIM2 (ATP 1 mM), 180 nM; against PIM3 (ATP 0.1 mM) it was 1.1 nM; against PIM3 (ATP 1 mM), 5 nM; on PIM1 (ATP 0.1 mM) it was 0.7 nM; against PIM1 (ATP 1 mM) it was 0.93 nM. For the same compound, the EC50 in the assay with Huh7 (Homo sapiens, Huh-7, 72 h) is 77 nM; in the assay on HepG2 (Homo sapiens, HepG2, 72 h) it was 54 nM; in the assay with HepaRG it was 16 nM; in the assay with A673 (Homo sapiens, A673, 72 h), 2.2 nM.

In the case of `O=C1NC(=O)c2c1c1c3ccc(O)cc3[nH]c1c1c2c2ccncc2n1CCN1CCOCC1` [Compound 42], the IC50 was determined as 18 nM against PIM2 (ATP 1 mM), 1.9 nM against PIM3 (ATP 1 mM) and 0.16 nM against PIM1 (ATP 1 mM). The EC50 in the assay with Huh7 (Homo sapiens, Huh-7, 72 h) was 100 nM; with A673 (Homo sapiens, A673, 72 h), 5 nM.

Take `CNC(=O)c1cc(Oc2ccc(NC(=O)Nc3ccc(Cl)c(C(F)(F)F)c3)cc2)ccn1` [Sorafenib, reference compound]: the EC50 turned out to be 2600 nM with Huh7 (Homo sapiens, Huh-7, 72 h); 2300 nM in the assay on HepG2 (Homo sapiens, HepG2, 72 h); 1400 nM in the assay on HepaRG; 18000 nM in the assay on A673 (Homo sapiens, A673, 72 h).

As to `C[C@@H]1CCC[C@H](C)N1CCn1c2ccc(F)cc2c2c3c(c4c5cc(F)ccc5[nH]c4c21)C(=O)NC3=O` [Compound 53, 12-{2-[(2R,6S)-2,6-dimethylpiperidin-1-yl]ethyl}-3,9-difluoro-12,13-dihydro-5H-indolo[2,3-a]pyrrolo[3,4-c]carbazole-5,7(6H)-dione], the IC50 at PIM2 (ATP 0.1 mM) was more than 1000 nM; on PIM3 (ATP 0.1 mM), 2.4 nM; against PIM1 (ATP 0.1 mM) it was 3 nM. Moreover, the “Selectivity among PIM1-3 (EC50 plots, FIGS. 2A, 2B)” value on PIM3 (LANCE Ultra assay) is “PIM1 and PIM3 selectivity”.

Consider `O=C1NC(=O)c2c1c1c3ccncc3[nH]c1c1c2c2ccc(O)cc2n1CCN1CCOCC1` [Compound 41], for which the IC50 against PIM2 (ATP 1 mM) came to 674 nM; against PIM3 (ATP 1 mM), 1.6 nM; against PIM1 (ATP 1 mM), 0.42 nM. In addition, the EC50 in the assay with Huh7 (Homo sapiens, Huh-7, 72 h) is 100 nM; in the assay with A673 (Homo sapiens, A673, 72 h), 4.4 nM.
